Structures can show the parent of a compound that is named as a salt.
test system: Frataxin (FXN) mRNA; experiment: Effect of HDAC inhibitors on frataxin (FXN) mRNA expression, qRT-PCR in compound-treated iPSC derived neuronal cells; format: cell-based; details: compound concentration of 0.625 μM, 24 h incubation, dihydrochloride, 0.625 µM
Procedure: Effect of HDAC Inhibitors on Frataxin (FXN) mRNA Expression
Method: mRNA quantification of compound-treated iPSC derived neuronal cells Neuronal stem cells were cultured in Neurobasal A medium (Life technologies #10888022) supplemented with N2, B27 (Life technologies #17502-048 and #17504-044), L-glutamine (Life technologies #25030081), supplemented with 20 ng/ml EGF (R&D Systems #236-EG) and 20 ng/ml bFGF (BioPioneer # HRP-0011). Neuronal differentiation was initiated by removing growth factors and culturing cells in Neurobasal A with N2 and B27. Cells were allowed to differentiate for 16 days. HDAC inhibitory compound was then added and incubate for 24 h. RNA isolation was performed using the RNeasy Plus mini kit (QIAgen #74134) using a QIAcube instrument per manufacturer's instructions. qRT-PCR was performed using qScript One-Step SYBR Green qRT-PCR Kit (Quanta Biosciences 170-8893BR) with the following conditions: 20 minutes at 50° C., 5 minutes at 95° C., and then 40 cycles of 20 seconds at 95° C., 20 seconds at 55° C., 30 seconds at 72° C. The primer sequences to detect expression of FXN were: 5′-[…]-3′ and 5′-[…]-3′.
The data for the following compounds, for FXN mRNA fold induction at a compound concentration of 0.625 μM are shown in Table 1, where A<1, 1<B<2, 2<C<3, 3<D<5, E>5.

Row | SMILES | FXN mRNA fold induction
1 | Nc1ccccc1NC(=O)c1ccc(OC2CCCN(CC3CCCCC3)CC2)cc1 (single isomer, unassigned) [Compound 40B, N-(2-aminophenyl)-4-((1-(cyclohexylmethyl)azepan-4-yl)oxy)benzamide dihydrochloride] | C (2<C<3)

same assay, conditions: iPSC, 24 h, compound concentration of 0.625 μM, 24 h incubation, read-out: FXN mRNA fold induction

Row | SMILES | fold induction at 0.625 µM
2 | CC(C)(C)CN1CC[C@@H](Oc2ccc(C(=O)Nc3ccccc3N)cc2)C1 [Compound 61, (R)-N-(2-aminophenyl)-4-((1-neopentylpyrrolidin-3-yl)oxy)benzamide] | 1 to 2
3 | CC(C)CN1CC(Nc2ccc(C(=O)Nc3ccccc3N)cc2)C1 [Compound 88, N-(2-aminophenyl)-4-((1-isobutylazetidin-3-yl)amino)benzamide trihydrochloride] | 1 to 2
4 | CC(C)CN1CC(Oc2ccc(C(=O)Nc3ccccc3N)cc2)C1 [Compound 43, N-(2-aminophenyl)-4-((1-isobutylazetidin-3-yl)oxy)benzamide dihydrochloride] | 1 to 2
5 | Nc1ccccc1NC(=O)c1ccc(OC2CN(C3CC3)C2)cc1 [Compound 125, N-(2-aminophenyl)-4-((1-cyclopropylazetidin-3-yl)oxy)benzamide] | 1 to 2
6 | CN1CC[C@@H](Nc2ccc(C(=O)Nc3ccccc3N)cc2)C1 [Compound 103, (R)-N-(2-aminophenyl)-4-((1-methylpyrrolidin-3-yl)amino)benzamide] | 1 to 2
7 | Nc1ccccc1NC(=O)c1ccc(O[C@H]2CCN(CC3CCCCC3)C2)cc1 [Compound 56, (S)-N-(2-aminophenyl)-4-((1-(cyclohexylmethyl)pyrrolidin-3-yl)oxy)benzamide dihydrochloride] | 2 to 3
8 | CC(C)(C)CN1CC(Nc2ccc(C(=O)Nc3ccccc3N)cc2)C1 [Compound 90, N-(2-aminophenyl)-4-((1-neopentylazetidin-3-yl)amino)benzamide] | 2 to 3
9 | CC(C)(C)CN1CC[C@H](Nc2ccc(C(=O)Nc3ccccc3N)cc2)C1 [Compound 98, (S)-N-(2-aminophenyl)-4-((1-neopentylpyrrolidin-3-yl)amino)benzamide trihydrochloride] | 2 to 3
10 | CC(C)(O)CN1CCCC(Nc2ccc(C(=O)Nc3ccccc3N)cc2)CC1 (stereo not drawn) [Compound 81, N-(2-aminophenyl)-4-((1-(2-hydroxy-2-methylpropyl)azepan-4-yl)amino)benzamide trihydrochloride] | 1 to 2
11 | Nc1ccccc1NC(=O)c1ccc(N[C@H]2CCN(CC3CCCCC3)C2)cc1 [Compound 101, (S)-N-(2-aminophenyl)-4-((1-(cyclohexylmethyl)pyrrolidin-3-yl)amino)benzamide] | 2 to 3
12 | CC(C)(O)CN1CC(Oc2ccc(C(=O)Nc3ccccc3N)cc2)C1 [Compound 44, N-(2-aminophenyl)-4-((1-(2-hydroxy-2-methylpropyl)azetidin-3-yl)oxy)benzamide dihydrochloride] | 1 to 2
13 | Nc1ccccc1NC(=O)c1ccc(NC2CCCNCC2)cc1 (stereo not drawn) [Compound 78, N-(2-aminophenyl)-4-(azepan-4-ylamino)benzamide tris(2,2,2-trifluoroacetate)] | 2 to 3
14 | Nc1ccccc1NC(=O)c1ccc(OC2CCCN(CC3CC3)CC2)cc1 (stereo not drawn) [Compound 38, N-(2-aminophenyl)-4-((1-(cyclopropylmethyl)azepan-4-yl)oxy)benzamide dihydrochloride] | 2 to 3
15 | Nc1ccccc1NC(=O)c1ccc(OC2CN(CC3CCCCC3)C2)cc1 [Compound 48, N-(2-aminophenyl)-4-((1-(cyclohexylmethyl)azetidin-3-yl)oxy)benzamide dihydrochloride] | 2 to 3
16 | Nc1ccccc1NC(=O)c1ccc(O[C@@H]2CCN(CC3CC3)C2)cc1 [Compound 62, (R)-N-(2-aminophenyl)-4-((1-(cyclopropylmethyl)pyrrolidin-3-yl)oxy)benzamide dihydrochloride] | 1 to 2
17 | CC1(CN2CC[C@H](Oc3ccc(C(=O)Nc4ccccc4N)cc3)C2)CC1 [Compound 55, (S)-N-(2-aminophenyl)-4-((1-((1-methylcyclopropyl)methyl)pyrrolidin-3-yl)oxy)benzamide dihydrochloride] | 2 to 3
18 | CC1(CN2CCCC(Oc3ccc(C(=O)Nc4ccccc4N)cc3)CC2)CC1 (stereo not drawn) [Compound 39, N-(2-aminophenyl)-4-((1-((1-methylcyclopropyl)methyl)azepan-4-yl)oxy)benzamide] | 3 to 5
19 | Nc1ccccc1NC(=O)c1ccc(OC2CCCNCC2)cc1 (stereo not drawn) [Compound 33, N-(2-aminophenyl)-4-(azepan-4-yloxy)benzamide hydrochloride] | 2 to 3
20 | Nc1ccccc1NC(=O)c1ccc(OC2CCCN(C3CC3)CC2)cc1 (stereo not drawn) [Compound 123, N-(2-aminophenyl)-4-((1-cyclopropylazepan-4-yl)oxy)benzamide benzamide dihydrochloride] | 1 to 2
21 | CC(C)CN1CCCC(Nc2ccc(C(=O)Nc3ccccc3N)cc2)CC1 (stereo not drawn) [Compound 80, N-(2-aminophenyl)-4-((1-isobutylazepan-4-yl)amino)benzamide] | 2 to 3
22 | Nc1ccccc1NC(=O)c1ccc(OC2CCCN(C3COC3)CC2)cc1 (stereo not drawn) [Compound 124, N-(2-aminophenyl)-4-((1-(oxetan-3-yl)azepan-4-yl)oxy)benzamide] | 1 to 2
23 | Nc1ccccc1NC(=O)c1ccc(OC2CCN(CC3CC3)CC2)cc1 [Compound 1, N-(2-aminophenyl)-4-((1-(cyclopropylmethyl)piperidin-4-yl)oxy)benzamide] | 1 to 2
24 | CC1(CN2CC[C@H](Nc3ccc(C(=O)Nc4ccccc4N)cc3)C2)CC1 [Compound 100, (S)-N-(2-aminophenyl)-4-((1-((1-methylcyclopropyl)methyl)pyrrolidin-3-yl)amino)benzamide] | 1 to 2
25 | Nc1ccccc1NC(=O)c1ccc(N[C@@H]2CCCN(CC3CCCCC3)CC2)cc1 (single isomer, unassigned) [Compound 85A] | 2 to 3
26 | Nc1ccccc1NC(=O)c1ccc(NC2CCN(C3COC3)CC2)cc1 [Compound 141, N-(2-aminophenyl)-4-((1-(oxetan-3-yl)piperidin-4-yl)amino)benzamide] | 1 to 2

same assay, conditions: iPSC, 24 h, read-out: FXN mRNA fold induction, compound concentration of 0.625 μM, 24 h incubation

Row | SMILES | fold induction at 0.625 µM
27 | Nc1ccccc1NC(=O)c1ccc(N(CC2CC2)C2CCN(CC3CC3)CC2)cc1 [Compound 28, N-(2-aminophenyl)-4-((cyclopropylmethyl)(1-(cyclopropylmethyl)piperidin-4-yl)amino)benzamide Trihydrochloride] | 2 to 3
28 | Nc1ccccc1NC(=O)c1ccc(NC2CC3CCC(C2)N3)cc1 (stereo not drawn) [Compound 115, 4-((8-azabicyclo[3.2.1]octan-3-yl)amino)-N-(2-aminophenyl)benzamide] | 1 to 2
29 | CC(C)CN1C2CCC1CC(Oc1ccc(C(=O)Nc3ccccc3N)cc1)C2 (stereo not drawn) [Compound 72, N-(2-aminophenyl)-4-((8-isobutyl-8-azabicyclo[3.2.1]octan-3-yl)oxy)benzamide dihydrochloride] | 1 to 2
30 | Nc1ccccc1NC(=O)c1ccc(NC2CC3CCC(C2)N3CC2CC2)cc1 (stereo not drawn) [Compound 120, N-(2-aminophenyl)-4-((8-(cyclopropylmethyl)-8-azabicyclo[3.2.1]octan-3-yl)amino)benzamide trihydrochloride] | 1 to 2

— patent publication US10308608B2, “Histone deacetylase inhibitors” (BIOMARIN PHARMACEUTICAL INC., priority 2015, dated 2019)
